“And” between values parts separate entries of the source, which are not always exact repeats. Equal values may be shown once. Read-outs that look alike come from different tables or passages of the source.
Assays:
FIH [1] = molecular target: T1, FIH (Homo sapiens, UniProt Q9NWT6); assay: 1H NMR assay of FIH-catalyzed oxidative decarboxylation of cosubstrate, with SPE-MS of final mixture; type: biochemical; settings: 5 μM FIH, 150 μM CA1-20, 150 μM cosubstrate; for hydroxylation of CA1-20 peptide in final reaction mixture (SPE-MS): t = 10 min; for FIH-catalyzed conversion of cosubstrate to succinate / 2-methylsuccinate (1H NMR): within 5 min
T1 sequence (Q9NWT6 whole entry): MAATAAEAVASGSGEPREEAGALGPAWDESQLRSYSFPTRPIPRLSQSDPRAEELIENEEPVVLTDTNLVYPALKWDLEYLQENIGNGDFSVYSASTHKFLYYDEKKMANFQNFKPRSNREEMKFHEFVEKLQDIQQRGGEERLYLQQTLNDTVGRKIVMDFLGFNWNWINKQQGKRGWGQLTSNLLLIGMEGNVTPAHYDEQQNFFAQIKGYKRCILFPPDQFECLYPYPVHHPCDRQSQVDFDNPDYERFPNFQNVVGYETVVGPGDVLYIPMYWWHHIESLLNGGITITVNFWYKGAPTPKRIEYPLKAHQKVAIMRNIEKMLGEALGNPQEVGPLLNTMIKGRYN
Method: Supplementary Figure 2. […] FIH- […]
catalyzed oxidative decarboxylation of 2OG was monitored using a Bruker AVIII 700 NMR machine equipped with a 5 mm 1H(13C/15N) inverse cryoprobe; spectra were analyzed using the Bruker TopSpin 3.6.1 software.
50 μM ammonium iron(II) sulfate hexahydrate (FAS, (NH4)2Fe(SO4)2·6H2O) in 50 mM aqueous Tris-d11 containing 10% v/v D2O (pH 7.5, 25° C). The ratio of the CA 1-20 peptide and the hydroxylated CA 1-20(Ox) peptide, which is the product of the F IH-catalyzed hydroxylation reaction, was determined using SPE-MS after NMR […]
(a) Close-up (3.0-2.2 ppm) of the 1H NMR spectrum of commercial 2OG in 50 mM aqueous Tris-d11 containing 10%v/v D2O (pH 7.5, 25° C); (b) Close-up (3.0-2.2 ppm) of the 1H NMR spectrum of commercial succinate in 50 […]
FIH-catalyzed oxidative decarboxylation of 3-methyl-2OG (1) was monitored using a Bruker AVIII 700 NMR machine equipped with a 5 mm 1H(13C/15N) inverse cryoprobe; spectra were analyzed using the […]
Bruker TopSpin 3.6.1 software. […]
in 50 mM aqueous Tris -d11 containing 10% v/v D2O (pH 7.5, 25° C). The ratio of the CA 1-20 peptide and the hydroxylated CA 1-20(Ox) peptide, which is the product of the FIH -catalyzed hydroxylation reaction, was […]
(a) Close -up (3.4 -0.9 ppm) of the 1H NMR spectrum of synthetic 1 in 50 mM aqueous Tris-d11 containing 10% v/v D2O (pH 7.5, 2 5° C); ( b) Close -up (3.4 -0.9 ppm) of the 1H NMR spectrum of commercial 2 -methylsuccinate ( 36) […]
FIH-catalyzed oxidative decarboxylation of 4-methyl-2OG (12) was monitored using a Bruker AVIII 700 NMR machine equipped with a 5 mm 1H(13C/15N) inverse cryoprobe; spectra were analyzed using the Bruker TopSpin 3.6.1 software.
(NH4)2Fe(SO4)2·6H2O) in 50 mM aqueous Tris-d11 containing 10% v/v D2O (pH 7.5, 25° C). The ratio of the CA 1-20 peptide and the hydroxylated CA 1-20(Ox) peptide, which is the product of the FI H-catalyzed hydroxylation […]
(a) Close -up (3.3 -0.9 ppm) of the 1H NMR spectrum of synthetic 12 in 50 mM aqueous Tris-d11 containing 10% v/v D2O (pH 7.5, 25° C); ( b) Close -up (3.4 -0.9 ppm) of the 1H NMR spectrum of commercial 2 -methylsuccinate ( 36)

FIH [2] = molecular target: T1, FIH; assay: SPE-MS FIH inhibition assay; type: biochemical; as to IC50 FIH: 0.15 µM FIH
Method: FIH inhibition assays were performed as described, using cosubstrate/cofactor stock solutions (L-ascorbic acid, LAA: 50 mM in MQ-grade water; 2-oxoglutarate, 2OG: 10 mM in MQ-grade water; ammonium iron(II) sulfate hexahydrate, FAS, (NH4)2Fe(SO4)2·6H2O: 400 mM in 20 mM HCl diluted to 1 mM in MQ-grade water), which were freshly prepared from commercially-sourced solids (Sigma Aldrich).
Dimethyl sulfoxide (DMSO) solutions of the 2OG derivatives were dry dispensed across 384-well polypropylene assay plates (Greiner) in an approximately threefold and 11-point dilution series (100 μM top concentration; the final DMSO assay concentration was kept constant at 0.5%v/v) using an ECHO 550 acoustic dispenser (Labcyte). […] Each reaction was performed in technical duplicates in adjacent wells of the assay plates; additionally, assays were performed in two independent duplicates on different days using different inhibitor solutions.
The Enzyme Mixture (25 μL/well), containing 0.3 μM His6-FIH in buffer (50 mM Tris, 50 mM NaCl, pH 7.5), was dispensed across the inhibitor-containing 384-well assay plates with a multidrop dispenser (ThermoFischer Scientific) at 20 °C under an ambient atmosphere. The plates were subsequently centrifuged (1000 rpm, 15 s) and incubated for 15 min at 20 °C. The Substrate Mixture (25 μL/well), containing 10.0 μM HIF-1α788–822[37] substrate, 200 μM LAA, 20.0 μM 2OG, and 20.0 μM FAS in buffer (50 mM Tris, 50 mM NaCl, pH 7.5), was added using the multidrop dispenser. The plates were centrifuged (1000 rpm, 15 s) and after incubating for 15 min, the enzyme reaction was stopped by the addition of 10%v/v aqueous formic acid (5 μL/well). The plates were then centrifuged (1000 rpm, 30 s) and analyzed by MS.
MS-analyses were performed using a RapidFire RF 365 high-throughput sampling robot (Agilent) attached to an iFunnel Agilent 6550 accurate-mass quadrupole time-of-flight mass spectrometer operated in the positive ionization mode. Assay samples were aspirated under vacuum for 0.6 s and loaded onto a C4 SPE cartridge. After loading, the C4 SPE cartridge was washed with 0.1%v/v aqueous formic acid to remove non-volatile buffer salts (5.5 s, 1.5 mL/min). […] The mass spectrometer was operated using the MassHunter Workstation B.08.00 software (Agilent), the mass spectrometer parameters were: capillary voltage (4000 V), nozzle voltage (1000 V), fragmentor voltage (365 V), gas temperature (280 °C), gas flow (13 L/min), sheath gas temperature (350 °C), sheath gas flow (12 L/min). The m/z + 2 (for CA1–20) or +3 (for HIF-1α788–822) charge states of the peptide (substrate) and the hydroxylated peptide (product) were used to extract ion chromatogram data, peak areas were integrated using RapidFire Integrator 4.3.0 (Agilent). Data were exported into Microsoft Excel and used to calculate the % conversion of the hydroxylation reaction using the equation: % conversion = 100 × (integral product peptide)/(integral substrate peptide+integral product peptide). […] Z′-factors were calculated according to the cited literature using Microsoft Excel (Supplementary Fig. 26)[83].
SPE-MS FIH inhibition assays were performed as described in the Methods section.
Tris, 50 mM NaCl, pH 7.5, 20 °C). […]

[3] = source data of Table 3, single independent replicates
[4] = source data of Table 3, single independent replicates, read-out: FIH IC50, independent replicate

| Structure (SMILES) | hydroxylation of CA1-20 peptide in final reaction mixture (SPE-MS) (FIH [1]) | FIH-catalyzed conversion of cosubstrate to succinate / 2-methylsuccinate (1H NMR) (FIH [1]) | FIH IC50, independent replicate (FIH [2]; [3]) | IC50 (FIH [2]; [4]) | further results |
| --- | --- | --- | --- | --- | --- |
| O=C(O)CCC(=O)C(=O)O [2OG, 2-Oxoglutarate] | > 95% | ~ 70% |  |  |  |
| CC(CC(=O)O)C(=O)C(=O)O (stereo not drawn) [compound 1, 3-methyl-2OG] | > 90% | ~ 70% | not inhibiting |  |  |
| CC(CC(=O)C(=O)O)C(=O)O (stereo not drawn) [compound 12, 4-methyl-2OG] | > 95% | ~ 65% | not inhibiting |  |  |
| CCC(CC(=O)C(=O)O)C(=O)O (stereo not drawn) [compound 14, 4-ethyl-2OG] |  |  |  | 27.8 µM and 13.3 µM and 16.6 µM | IC50 (FIH [2]; […] FIH, 5.0 μM HIF-1α788-822, 10 μM 2OG, mean of two runs, read-out: IC50 FIH): 19.3 µM |
| O=C(O)C(=O)CC(CCCc1ccccc1)C(=O)O (stereo not drawn) [compound 18, 4-(3-phenylpropyl)-2OG] |  |  |  | 0.864 µM and 0.923 µM |  |
| O=C(O)C(=O)C1CCC(C(=O)O)C1 (stereo not drawn) [compound 22, 3-(carboxycarbonyl)cyclopentane-1-carboxylic acid] |  |  |  |  | IC50 FIH (FIH [2]; […] FIH, 5.0 μM HIF-1α788-822, 10 μM 2OG, mean of two runs): inactive |
